Measurements from US20210101881A1 (Ancureall Pharmaceutical (Shanghai) Co., Ltd., priority 2018, published 2021).

Test system: human MOLM13 leukemia cells
Test: In vivo growth inhibition test of tumor cell (MOLM13 subcutaneous model)
Protocol: Test Example 4. In Vivo Growth Inhibition Test of Tumor Cell
Experimental animals: Bab/c immunodeficiency mice, female, 6 weeks old (weighing about 20 grams), purchased from Shanghai Sippr-BK laboratory animal Co. Ltd., raised by the Animal Center of Shanghai Fudan University, approved by the Ethics Committee of Shanghai Fudan University. The breeding environment is SPF level.
Test samples: Compound 140 of the present invention (purity: 99%), solid powder, stored at 4-8° C.
Cell and animal modelling: human MOLM13 leukemia cells were cultured in RPMI 1640 medium containing 10% fetal bovine serum. Cells in the exponential growth phase were collected (centrifuge at 1700 rpm for 3 minutes), washed once with 1×PBS, and resuspended to obtain a final concentration of 5×10^7/ml cells. Single-point inoculation of 0.1 ml was carried out subcutaneously on the right back.
When the average tumor volume reached ˜400 mm^3, the mice were randomly grouped according to tumor size. The test was divided into solvent control group and administration group, with 3 mice in each group. 0.01 ml of solution per gram of mouse weight was intragastrically administered (p.o.) once a day. The tumor was measured three times a week. Calculation formula for tumor volume: long diameter×short diameter^2/2. When the tumor volume of the control group reached 2000 mm^3, the experiment was ended, and molecular pathological analysis of tumor tissue was performed. The efficacy was evaluated based on the relative tumor growth inhibition rate (TGI), and the safety was evaluated based on the change of animal weight.
Formulation of test samples: An appropriate amount of compound 140 was weighed. An appropriate amount of ultrapure water was added and mixed well.
Methanesulfonic acid was then added to obtain a clear solution, and 4M NaOH was added dropwise to adjust pH to 4.3. Ultrapure water was added to obtain a constant volume and a final concentration of 5 mg/ml.
The solvent control group was an aqueous methanesulfonic acid solution (pH 4.3).
T/C % represents the relative tumor growth rate, that is, the percentage ratio of relative tumor volume or tumor weight of the administration group to that of the control group at a certain time point. T and C respectively represent the relative tumor volume (RTV) of the administration group and the control group at a certain time point. T/C % is calculated as follows:
wherein TRTV: the average RTV of the administration group; CRTV: the average RTV of the solvent control group: RTV=Vt/V0, V0 represents the tumor volume of the animal at the time of grouping, and Vt represents the tumor volume of the animal after administration.
Statistical analysis: All test results were expressed as mean tumor volume±SEM (mean standard error). The tumor volume data on Day 9 after the start of administration was selected for statistical analysis among different groups. The significant difference between the relative tumor volume of the administration group and that of the control group was determined by independent sample T test method. All data were analyzed with SPSS 18.0. p<0.05 means that there is a significant difference.

[1] = MOLM13 model, 50 mg/kg p.o. once a day, Day 9 after the start of administration

For NC(=O)c1cn(-c2nc(Nc3cccc(N4CCN(C5CCOCC5)CC4)c3)ncc2F)c2ccccc12 [Compound 140, 1-(5-fluoro-2-{3-[4-(tetrahydro-pyran-4-yl)-piperazin-1-yl]-phenylamino}-pyrimidin-4-yl)-1H-indole-3-carboxamide], which “tolerability of the drug” value (50 mg/kg p.o. once a day) is on record?
The value was “well tolerated”.

What about the “weight of the mouse during the administration” value (50 mg/kg p.o. once a day) of the same molecule?
The value was “remained stable”.

And the “TGI (%)” value [1]?
The value was 91.29%.

And the “TIC (%)” value [1]?
Its value is 8.71%.

And the “Tumor volume (mm^3)” value (MOLM13 model, 50 mg/kg p.o. once a day, Day 9 after the start of administration, mean ± SEM)?
The value was 164.8 ± 12 mm^3.

And the “growth of human acute myeloid leukemia MOLM13 cells in vivo” value (dose of 50 mg/kg)?
Its value is “effectively inhibit the growth”.
